Measurements published in ChEMBL document CHEMBL5550154, “Novel biaryloxazolidinone derivatives with broad-spectrum antibacterial activity, favorable drug-like profiles and in vivo efficacy against linezolid-resistant Staphylococcusaureus” (Eur J Med Chem, 2024).
Converted amounts (≈) assume the structure as drawn.

Columns and labels:
[1] = Tmax in ICR mouse at 10 mg/kg, IG measured upto 24 hrs by LC-MS analysis; format: ADME, organism-based; settings: in vivo, po
[2] = Plasma protein binding in rat incubated for 6 hrs by LC-MS/MS analysis; format: ADME, cell-free; settings: read-out: PPB (converted)
[3] = Stability in human plasma assessed as parent compound remaining at 25 degreeC measured upto 60 mins by HPLC analysis; format: ADME, cell-free; settings: read-out: Stability
[4] = Cytotoxicity against human HepG2 cells incubated for 48 hrs by MTT assay; format: toxicity, cell-based
[5] = Microsomal stability in rat liver microsomes assessed as elimination half life pretreated with compound upto 60 mins followed by NADPH addition and measured after 60 mins by LC/MS analysis; format: ADME, Microsome; settings: microsomes, 1 h
[6] = Microsomal stability in mouse liver microsomes assessed as parent compound remaining pretreated with compound upto 60 mins followed by NADPH addition and measured after 60 mins by LC/MS analysis; format: ADME, Microsome; settings: microsomes, 2 h, time < 120 min
[7] = Plasma protein binding in dog incubated for 6 hrs by LC-MS/MS analysis; format: ADME, cell-free, Canis lupus familiaris; settings: read-out: PPB (converted)
Enterococcus faecalis = assay: Antibacterial activity against linezolid-resistant Enterococcus faecalis assessed as inhibition of bacterial growth incubated for 16 to 20 hrs by CLSI based broth liquid microdilution method; format: functional; settings: time 16-20 hrs
[8] = Clearance in ICR mouse at 1 mg/kg, iv measured upto 24 hrs by LC-MS analysis; format: ADME, organism-based; settings: in vivo
Staphylococcus aureus = assay: Antibacterial activity against methicillin-sensitive Staphylococcus aureus assessed as inhibition of bacterial growth incubated for 16 to 20 hrs by CLSI based broth liquid microdilution method; format: functional; settings: time 16-20 hrs
[9] = AUC (0 to t) in ICR mouse at 10 mg/kg, IG measured upto 24 hrs by LC-MS analysis; format: ADME, organism-based; settings: in vivo, po
[10] = Stability in dog plasma assessed as parent compound remaining at 37 degreeC measured upto 60 mins by HPLC analysis; format: ADME, cell-free, Canis lupus familiaris; settings: read-out: Stability
[11] = Half life in ICR mouse at 1 mg/kg, iv measured upto 24 hrs by LC-MS analysis; format: ADME, organism-based; settings: in vivo
[12] = Apparent volume of distribution in Sprague-Dawley rat at 1 mg/kg, iv measured upto 24 hrs by LC-MS analysis; format: ADME, organism-based; settings: in vivo, read-out: Vz
Cytochrome P450 2C9 = Cytochrome P450 2C9 (Homo sapiens, UniProt P11712); assay: Inhibition of CYP2C9 in human liver microsomes using […] preincubated with compound for 5 mins followed by substrate addition and measured after 120 mins in presence of NADPH by LC-MS/MS analysis; format: ADME, Microsome
[13] = Microsomal stability in dog liver microsomes assessed as elimination half life pretreated with compound upto 60 mins followed by NADPH addition and measured after 60 mins by LC/MS analysis; format: ADME, Canis lupus familiaris, Microsome; settings: liver microsomes, time < 120 min, read-out: beta t1/2
[14] = Tmax in Sprague-Dawley rat at 10 mg/kg, IG measured upto 24 hrs by LC-MS analysis; format: ADME, organism-based; settings: in vivo, po
[15] = Microsomal stability in human liver microsomes assessed as elimination half life pretreated with compound upto 60 mins followed by NADPH addition and measured after 60 mins by LC/MS analysis; format: ADME, Microsome; settings: liver microsomes, time < 120 min, read-out: beta t1/2
Cytochrome P450 2D6 = Cytochrome P450 2D6 (Homo sapiens, UniProt P10635); assay: Inhibition of CYP2D6 in human liver microsomes […] preincubated with compound for 5 mins followed by substrate addition and measured after 120 mins in presence of NADPH by LC-MS/MS analysis; format: ADME, Microsome
[16] = Microsomal stability in rat liver microsomes assessed as parent compound remaining pretreated with compound upto 60 mins followed by NADPH addition and measured after 60 mins by LC/MS analysis; format: ADME, Microsome; settings: microsomes, 2 h, time < 120 min
[17] = Plasma protein binding in mouse incubated for 6 hrs by LC-MS/MS analysis; format: ADME, cell-free; settings: read-out: PPB (converted)
Cytochrome P450 3A4 = Cytochrome P450 3A4 (Homo sapiens, UniProt P08684); assay: Inhibition of CYP3A4 in human liver microsomes […] preincubated with compound for 5 mins followed by substrate addition and measured after 120 mins in presence of NADPH by LC-MS/MS analysis; format: ADME, Microsome
[18] = Microsomal stability in rat liver microsomes assessed as intrinsic clearance pretreated with compound upto 60 mins followed by NADPH addition and measured after 60 mins by LC/MS analysis; format: ADME, Microsome; settings: time < 120 min, read-out: CLH
[19] = Cmax in Sprague-Dawley rat at 10 mg/kg, IG measured upto 24 hrs by LC-MS analysis; format: ADME, organism-based; settings: in vivo, po
[20] = Stability in rat plasma assessed as parent compound remaining at 37 degreeC measured upto 60 mins by HPLC analysis; format: ADME, cell-free; settings: read-out: Stability
[21] = Stability in human plasma assessed as parent compound remaining at 37 degreeC measured upto 60 mins by HPLC analysis; format: ADME, cell-free; settings: read-out: Stability
Cytochrome P450 1A2 = biological target: T1, Cytochrome P450 1A2 (Homo sapiens, UniProt P05177); assay: Inhibition of CYP1A2 in human liver microsomes with alpha-naphthoflavone as reference inhibitor preincubated with compound for 5 mins followed by substrate addition and measured after 120 mins in presence of NADPH by LC-MS/MS analysis; format: ADME, Microsome
T1 sequence (P05177 whole entry): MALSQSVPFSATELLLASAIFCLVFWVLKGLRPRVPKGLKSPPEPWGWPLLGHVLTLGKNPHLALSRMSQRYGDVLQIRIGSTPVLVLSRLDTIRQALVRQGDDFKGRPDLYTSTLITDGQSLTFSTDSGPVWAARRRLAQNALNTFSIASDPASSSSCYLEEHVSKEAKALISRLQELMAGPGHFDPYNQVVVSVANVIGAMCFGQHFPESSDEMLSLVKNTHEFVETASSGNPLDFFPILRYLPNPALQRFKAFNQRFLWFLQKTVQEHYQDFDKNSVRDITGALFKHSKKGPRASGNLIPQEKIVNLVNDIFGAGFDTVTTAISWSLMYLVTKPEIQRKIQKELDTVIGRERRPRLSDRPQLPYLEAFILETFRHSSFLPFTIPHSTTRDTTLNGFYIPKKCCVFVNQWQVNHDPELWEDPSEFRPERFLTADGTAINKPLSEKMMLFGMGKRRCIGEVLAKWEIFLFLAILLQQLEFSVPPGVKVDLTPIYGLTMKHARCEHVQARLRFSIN

[22] = Cmax in ICR mouse at 10 mg/kg, IG measured upto 24 hrs by LC-MS analysis; format: ADME, organism-based; settings: in vivo, po
[23] = Plasma protein binding in human incubated for 6 hrs by LC-MS/MS analysis; format: ADME, cell-free; settings: read-out: PPB (converted)
[24] = Stability in dog plasma assessed as parent compound remaining at 25 degreeC measured upto 60 mins by HPLC analysis; format: ADME, cell-free, Canis lupus familiaris; settings: read-out: Stability
[25] = Stability in mouse plasma assessed as parent compound remaining at 25 degreeC measured upto 60 mins by HPLC analysis; format: ADME, cell-free; settings: read-out: Stability
[26] = Aqueous solubility of compound at pH 2 by LC-MS/MS analysis; format: physicochemical; settings: buffer
[27] = Microsomal stability in mouse liver microsomes assessed as intrinsic clearance pretreated with compound upto 60 mins followed by NADPH addition and measured after 60 mins by LC/MS analysis; format: ADME, Microsome; settings: time < 120 min, read-out: CLH
[28] = Microsomal stability in monkey liver microsomes assessed as intrinsic clearance pretreated with compound upto 60 mins followed by NADPH addition and measured after 60 mins by LC/MS analysis; format: ADME, Macaca mulatta, Microsome; settings: rhesus monkey, time < 120 min, read-out: CLH

Sequence of Cytochrome P450 2D6 (P10635 whole entry): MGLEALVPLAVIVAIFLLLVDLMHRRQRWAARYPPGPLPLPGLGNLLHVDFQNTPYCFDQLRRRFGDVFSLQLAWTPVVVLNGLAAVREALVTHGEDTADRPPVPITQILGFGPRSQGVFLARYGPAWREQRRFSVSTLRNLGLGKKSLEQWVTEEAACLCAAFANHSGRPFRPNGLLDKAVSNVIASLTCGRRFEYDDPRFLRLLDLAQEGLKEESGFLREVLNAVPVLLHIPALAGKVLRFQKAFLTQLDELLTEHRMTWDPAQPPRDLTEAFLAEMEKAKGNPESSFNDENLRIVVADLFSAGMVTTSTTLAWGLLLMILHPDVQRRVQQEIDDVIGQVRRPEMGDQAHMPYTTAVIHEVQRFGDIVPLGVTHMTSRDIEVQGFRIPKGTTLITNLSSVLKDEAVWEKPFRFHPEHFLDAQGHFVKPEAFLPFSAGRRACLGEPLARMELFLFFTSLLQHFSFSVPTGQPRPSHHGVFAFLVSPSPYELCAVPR
Sequence of Cytochrome P450 2C9 (P11712 whole entry): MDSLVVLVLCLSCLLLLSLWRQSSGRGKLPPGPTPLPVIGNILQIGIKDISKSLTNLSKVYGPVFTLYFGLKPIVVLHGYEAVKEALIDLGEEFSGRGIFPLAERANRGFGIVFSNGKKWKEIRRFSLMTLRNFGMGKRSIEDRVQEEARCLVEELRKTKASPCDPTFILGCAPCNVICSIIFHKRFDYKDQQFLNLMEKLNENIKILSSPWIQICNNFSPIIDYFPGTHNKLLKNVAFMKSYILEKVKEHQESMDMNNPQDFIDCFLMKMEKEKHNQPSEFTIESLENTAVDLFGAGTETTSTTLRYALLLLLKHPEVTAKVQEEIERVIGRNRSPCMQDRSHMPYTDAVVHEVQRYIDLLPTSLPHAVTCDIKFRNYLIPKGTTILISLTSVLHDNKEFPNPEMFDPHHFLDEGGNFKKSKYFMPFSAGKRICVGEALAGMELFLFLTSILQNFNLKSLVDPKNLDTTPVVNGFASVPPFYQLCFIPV
Sequence of Cytochrome P450 3A4 (P08684 whole entry): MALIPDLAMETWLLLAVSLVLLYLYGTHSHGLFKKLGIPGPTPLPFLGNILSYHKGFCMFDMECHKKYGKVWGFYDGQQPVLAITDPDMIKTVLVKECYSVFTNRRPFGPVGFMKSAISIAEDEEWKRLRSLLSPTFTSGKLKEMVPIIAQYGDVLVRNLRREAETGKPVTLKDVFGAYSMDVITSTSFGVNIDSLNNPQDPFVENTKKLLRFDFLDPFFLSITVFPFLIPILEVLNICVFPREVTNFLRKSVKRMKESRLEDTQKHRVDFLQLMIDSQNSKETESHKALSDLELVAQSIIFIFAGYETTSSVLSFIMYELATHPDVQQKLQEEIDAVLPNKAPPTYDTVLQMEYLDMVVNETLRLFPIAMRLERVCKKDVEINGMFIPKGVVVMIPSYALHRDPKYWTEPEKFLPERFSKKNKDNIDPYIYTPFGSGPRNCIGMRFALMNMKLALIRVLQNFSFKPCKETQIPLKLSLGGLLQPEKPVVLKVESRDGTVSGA

Molecule `CC(C)N/N=C/c1ccc(-c2ccc(N3C[C@H](CO)OC3=O)cc2F)cn1` has a Tmax [1] of 0.25 h, a fraction unbound at 6 h [2] of 0.018 and a remaining at 1 h [3] of 112%. For the same molecule, the IC50 at 48 h [4] was greater than 30 µM, the “beta t1/2” value [5] was 1.87 h and the Stability [6] was 57.9%. For the same molecule, the fraction unbound at 6 h [7] was 0.074, the MIC (Enterococcus faecalis) was 1 µg/mL (≈ 2.69 µM) and the clearance [8] was 34.9 mL/min/kg. The MIC (Staphylococcus aureus) was 0.03 µg/mL (≈ 0.0806 µM), the AUC(0-t) at 24 h [9] was 613 ng·h/mL and the remaining at 1 h [10] was 108%. The half-life [11] was 0.34 h, the Vd [12] was 0.72 L/kg and the IC50 (Cytochrome P450 2C9) was greater than 30 µM. For the same molecule, the half-life [13] was 3.37 h, the Tmax [14] was 1.17 h and the half-life [15] was 4.68 h. For the same molecule, the IC50 (Cytochrome P450 2D6) was greater than 30 µM, the Stability [16] was 70.2% and the fraction unbound at 6 h [17] was 0.048. It also gave an IC50 (Cytochrome P450 3A4) of 16.5 µM, a microsomal CLint [18] of 12.6 µL/min/mg and a Cmax [19] of 2480 ng/mL. The remaining at 1 h [20] was 102%, the remaining at 1 h [21] was 107% and the IC50 (Cytochrome P450 1A2) was greater than 30 µM. For the same molecule, the Cmax [22] was 479 ng/mL, the fraction unbound at 6 h [23] was 0.074 and the remaining at 1 h [24] was 112%. The remaining at 1 h [25] was 113%, the solubility [26] was 56.4 µM (≈ 21 µg/mL) and the microsomal CLint [27] was 18.4 µL/min/mg. The microsomal CLint [28] was 13.7 µL/min/mg.
